According to PubChem BioAssay AID256 (DTP/NCI, 2004):
Values joined by “and” are separate entries in the source; they are usually repeats but may differ in a detail not shown here. Equal values may be shown once. Toxic doses and inconclusive results are not listed. The calls were made as follows: active = survival T/C of 150% or more; inactive = T/C below 125% in these data.

Tested on: CD2F1 mice, L1210 leukemia ip, survival T/C
Experiment: NCI In Vivo Anticancer Drug Screen. Data for tumor model L1210 Leukemia (intraperitoneal) in CD2F1 (CDF1) mice
Conditions: endpoint: mean survival time, higher = longer survival
In short: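 Mice carrying a transplanted tumor received test compound or vehicle alone. The value is the measurement in the treated group divided by that in the vehicle-treated control group.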

[1] = dose: 100.0 mg/kg/injection, schedule: Q01DX001 (ip), vehicle: saline
[2] = dose: 200.0 mg/kg/injection, schedule: Q01DX001 (ip), vehicle: saline
[3] = dose: 100.0 mg/kg/injection, schedule: Q04DX002 (ip), vehicle: saline with Tween-80
[4] = dose: 100.0 mg/kg/injection, schedule: Q01DX009 (ip), vehicle: saline
[5] = dose: 200.0 mg/kg/injection, schedule: Q01DX009 (ip), vehicle: saline
[6] = dose: 100.0 mg/kg/injection, schedule: Q01DX009 (ip), vehicle: saline with Tween-80
[7] = dose: 200.0 mg/kg/injection, schedule: Q01DX009 (ip), vehicle: saline with Tween-80
[8] = dose: 400.0 mg/kg/injection, schedule: Q01DX009 (ip), vehicle: saline with Tween-80
[9] = dose: 100.0 mg/kg/injection, schedule: Q01DX001 (ip), vehicle: saline with Tween-80
[10] = dose: 200.0 mg/kg/injection, schedule: Q01DX001 (ip), vehicle: saline with Tween-80
[11] = dose: 400.0 mg/kg/injection, schedule: Q01DX001 (ip), vehicle: saline with Tween-80
[12] = dose: 100.0 mg/kg/injection, schedule: Q04DX003 (ip), vehicle: saline
[13] = dose: 200.0 mg/kg/injection, schedule: Q04DX003 (ip), vehicle: saline
[14] = dose: 400.0 mg/kg/injection, schedule: Q04DX003 (ip), vehicle: saline

Measured: T/C

c1ccc(CNCCCNCc2ccccn2)nc1
inactive: [1] 100 % of control | [2] 100 % of control

NC(=S)N/N=C\c1nccc2c(C(F)(F)F)cccc12
inactive: [3] 124 % of control | dose: 200.0 mg/kg/injection, schedule: Q04DX002 (ip), vehicle: saline with Tween-80 89 % of control

Cn1cnc2cc(N)ccc21
inactive: dose: 50.0 mg/kg/injection, schedule: Q01DX009 (ip), vehicle: saline 95 % of control | [4] 98 % of control | [5] 98 % of control

O=C(/C(=N/N=C\c1ccc([N+](=O)[O-])cc1)c1ccccc1)c1ccccc1
inactive: [6] 101 % of control | [4] 109 % of control | [7] 95 % of control | [5] 109 % of control | [8] 95 % of control | dose: 400.0 mg/kg/injection, schedule: Q01DX009 (ip), vehicle: saline 104 % of control

CC1(C)CC(N2CCCOP2(=O)N(CCCl)CCCl)CC(C)(C)N1 (centres undefined)
inactive: dose: 62.5 mg/kg/injection, schedule: Q01DX001 (ip), vehicle: water 105 % of control | dose: 125.0 mg/kg/injection, schedule: Q01DX001 (ip), vehicle: water 100 % of control | dose: 250.0 mg/kg/injection, schedule: Q01DX001 (ip), vehicle: water 106 % of control

Nc1ncnc2c1c1c(N)[nH]c(=O)nc1n2C1OC(CO)C(O)C1O (centres undefined)
inactive: dose: 12.5 mg/kg/injection, schedule: Q01DX005 (ip), vehicle: water 106 % of control | dose: 25.0 mg/kg/injection, schedule: Q01DX005 (ip), vehicle: water 104 % of control | dose: 50.0 mg/kg/injection, schedule: Q01DX005 (ip), vehicle: water 97 % of control | dose: 100.0 mg/kg/injection, schedule: Q01DX005 (ip), vehicle: water 104 % of control | dose: 200.0 mg/kg/injection, schedule: Q01DX005 (ip), vehicle: water 121 % of control

O=C(O)C1=NN(c2ccc(S(=O)(=O)O)cc2)C(=O)C1
inactive: [6] 96 % of control | [7] 92 % of control | [8] 92 % of control

CC(C)CN1CCOCC1
inactive: dose: 50.0 mg/kg/injection, schedule: Q01DX009 (ip), vehicle: saline with Tween-80 95 % of control | [6] 97 % of control | dose: 100.0 mg/kg/injection, schedule: Q04DX003 (ip), vehicle: saline with Tween-80 107 % of control | dose: 200.0 mg/kg/injection, schedule: Q04DX003 (ip), vehicle: saline with Tween-80 98 % of control

O=c1cc(NCCCCCc2ccccc2)[nH]c(=O)[nH]1
inactive: dose: 37.5 mg/kg/injection, schedule: Q01DX001 (ip), vehicle: saline with Tween-80 96 % of control | dose: 75.0 mg/kg/injection, schedule: Q01DX001 (ip), vehicle: saline with Tween-80 100 % of control | dose: 150.0 mg/kg/injection, schedule: Q01DX001 (ip), vehicle: saline with Tween-80 96 % of control

CCCCNC(C)[C@]1(O)Cc2c(O)c3c(c(O)c2[C@@H](OC2CC(N)C(O)C(C)O2)C1)C(=O)c1c(OC)cccc1C3=O (some centres undefined)
inactive: dose: 0.15 mg/kg/injection, schedule: Q01DX009 (ip), vehicle: water 106 % of control | dose: 0.31 mg/kg/injection, schedule: Q01DX009 (ip), vehicle: water 114 % of control | dose: 0.62 mg/kg/injection, schedule: Q01DX009 (ip), vehicle: water 111 % of control | dose: 1.25 mg/kg/injection, schedule: Q01DX009 (ip), vehicle: water 112 % of control | dose: 2.5 mg/kg/injection, schedule: Q01DX009 (ip), vehicle: water 122 % of control | dose: 5.0 mg/kg/injection, schedule: Q01DX009 (ip), vehicle: water 118 % of control | dose: 10.0 mg/kg/injection, schedule: Q01DX009 (ip), vehicle: water 88 % of control

c1ccc2nc3ccccc3cc2c1
inactive: [6] 101 % of control | [7] 103 % of control

O=c1cc[nH]c(=O)n1C1OC(CO)C(O)C1O (centres undefined)
inactive: dose: 100.0 mg/kg/injection, schedule: Q01DX005 (ip), vehicle: saline 104 % of control | dose: 200.0 mg/kg/injection, schedule: Q01DX005 (ip), vehicle: saline 113 % of control

O=C(O)Cc1ccc(O)cc1
inactive: [9] 101 % of control | [10] 101 % of control | [11] 108 % of control

Cc1nc(N)[nH]c(=O)c1CCCN
inactive: [12] 95 % of control | [13] 98 % of control | [14] 95 % of control

COc1ccc(/C=N/N=C(/C(=O)c2ccc(OC)cc2)c2ccc(OC)cc2)cc1
inactive: [1] 95 % of control | [12] 102 % of control | [2] 91 % of control | [13] 97 % of control | dose: 400.0 mg/kg/injection, schedule: Q01DX001 (ip), vehicle: saline 95 % of control | [14] 96 % of control

CC(C)(C(O)c1ccccc1)[N+](=O)[O-] (centres undefined)
inactive: [9] 105 % of control | [6] 102 % of control | [10] 102 % of control | [7] 95 % of control | [11] 98 % of control | [8] 96 % of control

CNC/C(C)=C/Br
inactive: dose: 50.0 mg/kg/injection, schedule: Q01DX009 (ip), vehicle: acetone 101 % of control | dose: 100.0 mg/kg/injection, schedule: Q04DX003 (ip), vehicle: acetone 101 % of control | dose: 200.0 mg/kg/injection, schedule: Q04DX003 (ip), vehicle: acetone 97 % of control

O=C(Oc1ccc(O)cc1)N(c1cccc2ccccc12)c1cccc2ccccc12
inactive: dose: 25.0 mg/kg/injection, schedule: Q04DX002 (ip), vehicle: saline with Tween-80 100 % of control | dose: 50.0 mg/kg/injection, schedule: Q04DX002 (ip), vehicle: saline with Tween-80 95 % of control | [3] 91 % of control and 98 % of control | dose: 400.0 mg/kg/injection, schedule: Q04DX002 (ip), vehicle: saline with Tween-80 95 % of control

Cn1c(CC#N)c(C[N+](C)(C)C)c2ccccc21
inactive: dose: 2.5 mg/kg/injection, schedule: Q01DX009 (ip), vehicle: saline with Tween-80 97 % of control | dose: 5.0 mg/kg/injection, schedule: Q01DX001 (ip), vehicle: saline with Tween-80 102 % of control | dose: 5.0 mg/kg/injection, schedule: Q01DX009 (ip), vehicle: saline with Tween-80 97 % of control | dose: 10.0 mg/kg/injection, schedule: Q01DX001 (ip), vehicle: saline with Tween-80 96 % of control

CNC(=S)N(/N=C/c1cc(Cl)cc(Cl)c1O)c1ccccc1
inactive: [9] 87 % of control | [10] 87 % of control | [11] 91 % of control
